pIC50, pKd: −log10 of the molar value. Active and inactive are the calls of the source. No cut-off for these calls is given here.
Tests used:
Heat shock protein HSP90 [1] = target: T1, Heat shock protein HSP90 (Homo sapiens, UniProt P07900+P08238); experiment: Binding affinity to Hsp90 (unknown origin) assessed as dissociation constant incubated for 30 mins by fluorescence spectrophotometric analysis; assay type: protein assay
Heat shock protein HSP90 [2] = target: T1, Heat shock protein HSP90; experiment: Inhibition of Hsp90 (unknown origin) ATPase activity assessed as decrease in absorbance using PEP as substrate in presence of ATP and NADH by absorbance based assay; assay type: protein assay
Endoplasmin [3] = target: T2, Endoplasmin (Homo sapiens, UniProt P14625); experiment: Inhibition of GRP94 (unknown origin) incubated for 12 to 16 hrs by FP competition assay
T2 sequence (P14625 whole entry): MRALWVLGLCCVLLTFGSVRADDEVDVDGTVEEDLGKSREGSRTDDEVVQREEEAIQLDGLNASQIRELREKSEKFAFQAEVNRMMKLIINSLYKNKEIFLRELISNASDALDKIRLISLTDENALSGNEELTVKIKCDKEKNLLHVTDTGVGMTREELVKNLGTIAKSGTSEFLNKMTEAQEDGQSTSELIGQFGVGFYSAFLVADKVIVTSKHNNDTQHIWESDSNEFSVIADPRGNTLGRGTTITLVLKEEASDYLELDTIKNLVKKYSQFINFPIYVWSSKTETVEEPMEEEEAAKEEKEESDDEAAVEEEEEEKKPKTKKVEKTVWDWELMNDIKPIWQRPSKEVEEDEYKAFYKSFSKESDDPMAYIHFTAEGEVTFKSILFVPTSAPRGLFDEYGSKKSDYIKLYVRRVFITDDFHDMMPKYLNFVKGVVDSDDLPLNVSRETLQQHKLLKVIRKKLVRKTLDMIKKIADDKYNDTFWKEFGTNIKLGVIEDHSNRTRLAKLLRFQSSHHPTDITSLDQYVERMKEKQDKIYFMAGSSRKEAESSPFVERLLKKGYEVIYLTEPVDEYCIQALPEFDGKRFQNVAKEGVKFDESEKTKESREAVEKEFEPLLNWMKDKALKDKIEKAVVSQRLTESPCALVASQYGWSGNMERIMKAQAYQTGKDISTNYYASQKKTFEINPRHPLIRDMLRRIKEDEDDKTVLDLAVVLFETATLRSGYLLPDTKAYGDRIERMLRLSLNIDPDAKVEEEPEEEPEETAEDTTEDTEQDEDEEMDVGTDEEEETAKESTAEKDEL

HCT-116 = experiment: Antiproliferative activity against human HCT-116 cells assessed as cell viability inhibition rate incubated for 72 hr by MTT assay; assay type: functional, cell-based; settings: HCT-116, 72 h
MCF7 = experiment: Antiproliferative activity against human MCF7 cells assessed as cell viability inhibition rate incubated for 72 hr by MTT assay; assay type: functional, cell-based; settings: MCF7, 72 h
SK-BR-3 = experiment: Antiproliferative activity against human SK-BR-3 cells assessed as cell viability inhibition rate incubated for 72 hr by MTT assay; assay type: functional, cell-based; settings: SK-BR-3, 72 h
K562 = experiment: Antiproliferative activity against human K562 cells assessed as cell viability inhibition rate incubated for 72 hr by MTT assay; assay type: functional, cell-based; settings: K562, 72 h
A549 = experiment: Antiproliferative activity against human A549 cells assessed as cell viability inhibition rate incubated for 72 hr by MTT assay; assay type: functional, cell-based; settings: A549, 72 h
[4] = target: T3, Heat shock protein HSP 90-alpha (Homo sapiens, UniProt P07900); experiment: Inhibition of HSP90alpha (unknown origin) incubated for 12 to 16 hrs by FP competition assay
[5] = Selectivity ratio of IC50 for inhibition of GRP94 (unknown origin) to IC50 for inhibition of HSP90alpha (unknown origin)
[6] = Tmax in rat plasma at 50 mg/kg, po and measured upto 24 hr by LC-MS/MS analysis; assay type: ADME, organism-based
[7] = Cmax in rat plasma at 50 mg/kg, po and measured upto 24 hr by LC-MS/MS analysis; assay type: ADME, organism-based
[8] = AUC in rat plasma at 50 mg/kg, po and measured upto 24 hr by LC-MS/MS analysis; assay type: ADME, organism-based
[9] = Half life in rat plasma at 50 mg/kg, po and measured upto 24 hr by LC-MS/MS analysis; assay type: ADME, organism-based
[10] = Clearance in rat plasma at 50 mg/kg, po and measured upto 24 hr by LC-MS/MS analysis; assay type: ADME, organism-based
[11] = Oral bioavailability in rat at 50 mg/kg and measured upto 24 hr by LC-MS/MS analysis; assay type: ADME, organism-based; settings: in vivo
[12] = target: T3, Heat shock protein HSP 90-alpha; experiment: Binding affinity to Hsp90alpha (unknown origin) assessed as dissociation constant
Endoplasmin [13] = target: T2, Endoplasmin; experiment: Binding affinity to GRP94 (unknown origin) assessed as dissociation constant

| Structure (SMILES) | Kd (Heat shock protein HSP90 [1]) | pIC50 (HCT-116) | pIC50 (MCF7) | pIC50 (SK-BR-3) | pIC50 (K562) | pIC50 (A549) | further results |
| --- | --- | --- | --- | --- | --- | --- | --- |
| CC(C)c1cc(C(=O)N2C[C@@H](c3ccccc3)C[C@@H]2C(=O)NCC(=O)N2CCCCC2)c(O)cc1O | – | – | – | – | – | – | Activity (Heat shock protein HSP90 [1]): inactive; inhibition (Heat shock protein HSP90 [2]): inactive |
| CC(C)c1cc(C(=O)N2C[C@@H](c3ccccc3)C[C@@H]2C(=O)NCCCN2CCOCC2)c(O)cc1O | 87 nM | 6.69 | 7.21 | 6.68 | 6.36 | 7.55 | pIC50 (Endoplasmin [3]): 6.11; pIC50 [4]: 6.81; Ratio IC50 [5]: 5.02; Tmax [6]: 0.733 h; Cmax [7]: 65.7 µg/mL; AUC at 24 h [8]: 186 µg·h/mL; half-life [9]: 5.8 h; CL/F [10]: 1.46 mL/min/kg; bioavailability [11]: 5.5% |
| CC(C)c1cc(C(=O)N2Cc3ccc(CN4CCN(C)CC4)cc3C2)c(O)cc1O [ONALESPIB] | 27 nM | 6.99 | 7.28 | 6.71 | 6.33 | 6.88 | pIC50 (Endoplasmin [3]): 7.52; pKd [12]: 7.30; pKd (Endoplasmin [13]): 7.52; pIC50 [4]: 7.30; Ratio IC50 [5]: 0.6 |
| CC(C)c1cc(C(=O)N2C[C@@H](c3ccccc3)C[C@@H]2C(=O)NCCc2ccccc2)c(O)cc1O | 32 nM | 6.57 | 7.27 | 6.43 | 6.21 | 7.35 | pIC50 (Endoplasmin [3]): 6.52; pIC50 [4]: 6.86; Ratio IC50 [5]: 2.22 |
| CC(C)NC(=O)Oc1ccc2c(c1)CN(C(=O)c1cc(C3CC3)c(O)cc1O)C2 | 20 nM | – | – | – | – | – | IC50 (Heat shock protein HSP90 [2]): 270 nM |
| CCN1CCN(C(=O)[C@H]2C[C@H](c3ccccc3)CN2C(=O)c2cc(C(C)C)c(O)cc2O)CC1 | – | – | – | – | – | – | Activity (Heat shock protein HSP90 [1]): inactive; inhibition (Heat shock protein HSP90 [2]): inactive |
| CCCCN(CCCC)C(=O)[C@H]1C[C@H](c2ccccc2)CN1C(=O)c1cc(C(C)C)c(O)cc1O | – | – | – | – | – | – | Activity (Heat shock protein HSP90 [1]): inactive; inhibition (Heat shock protein HSP90 [2]): inactive |
| CCOCCCNC(=O)[C@H]1C[C@H](c2ccccc2)CN1C(=O)c1cc(C(C)C)c(O)cc1O | 1098 nM | 5.95 | 6.64 | 6.03 | 6.15 | 6.69 | – |
| O=C(c1ccccc1O)N1Cc2ccccc2C1 | 532 nM | – | – | – | – | – | IC50 (Heat shock protein HSP90 [2]): 6940 nM |
| CC(C)C(C)NC(=O)[C@H]1C[C@H](c2ccccc2)CN1C(=O)c1cc(C2CC2)c(O)cc1O (stereo partly specified) | 345 nM | 6.29 | 6.69 | 6.10 | 6.20 | 6.98 | – |
| CCN1CCCC1CNC(=O)[C@H]1C[C@H](c2ccccc2)CN1C(=O)c1cc(C(C)C)c(O)cc1O (stereo partly specified) | – | – | – | – | – | – | Activity (Heat shock protein HSP90 [1]): inactive; inhibition (Heat shock protein HSP90 [2]): inactive |
| CC(NC(=O)[C@H]1C[C@H](c2ccccc2)CN1C(=O)c1cc(C2CC2)c(O)cc1O)c1ccccc1 (stereo partly specified) | 201 nM | 6.20 | 7.00 | 6.20 | 6.15 | 6.97 | – |
| CC(C)N(Cc1cccnc1)C(=O)[C@H]1CCCN1C(=O)c1cc(C2CC2)c(OP(=O)(O)O)cc1O | 136 nM | – | – | – | – | – | IC50 (Heat shock protein HSP90 [2]): 237 nM |
| Cc1ccc(CNC(=O)[C@H]2C[C@H](c3ccccc3)CN2C(=O)c2cc(C3CC3)c(O)cc2O)cc1 | 153 nM | 6.33 | 7.05 | 6.37 | 6.25 | 7.05 | – |
| O=C(NCCCN1CCOCC1)[C@H]1C[C@H](c2ccccc2)CN1C(=O)c1cc(C2CC2)c(O)cc1O | 68 nM | 6.73 | 7.14 | 6.98 | 6.39 | 7.51 | pIC50 (Endoplasmin [3]): 6.69; pIC50 [4]: 6.87; Ratio IC50 [5]: 1.49; Tmax [6]: 0.883 h; Cmax [7]: 76.5 µg/mL; AUC at 24 h [8]: 239 µg·h/mL; half-life [9]: 6.9 h; CL/F [10]: 1.75 mL/min/kg; bioavailability [11]: 7.1% |
| COc1ccc(CNC(=O)[C@H]2C[C@H](c3ccccc3)CN2C(=O)c2cc(C(C)C)c(O)cc2O)cc1 | 147 nM | 6.33 | 6.97 | 6.14 | 6.27 | 6.99 | – |
| CC(C)N(Cc1cccnc1)C(=O)[C@H]1CCCN1C(=O)c1cc(C2CC2)c(O)cc1O | 27 nM | – | – | – | – | – | IC50 (Heat shock protein HSP90 [2]): 310 nM |
